How the values were obtained:
[1] = target: RET V804L (Homo sapiens (Human), UniProt P07949, V804L); experiment: RET V804L Gatekeeper Mutant Assay at KM (Caliper electrophoretic mobility shift); assay type: biochemical; details: 10 μM ATP (KM), read-out: V480L Mutant
[2] = target: wild type RET (Homo sapiens (Human), UniProt P07949); experiment: RET Wild Type Assay at KM (Caliper electrophoretic mobility shift); assay type: biochemical; details: 25 μM ATP (KM)
Chain of wild type RET (P07949 29-1114): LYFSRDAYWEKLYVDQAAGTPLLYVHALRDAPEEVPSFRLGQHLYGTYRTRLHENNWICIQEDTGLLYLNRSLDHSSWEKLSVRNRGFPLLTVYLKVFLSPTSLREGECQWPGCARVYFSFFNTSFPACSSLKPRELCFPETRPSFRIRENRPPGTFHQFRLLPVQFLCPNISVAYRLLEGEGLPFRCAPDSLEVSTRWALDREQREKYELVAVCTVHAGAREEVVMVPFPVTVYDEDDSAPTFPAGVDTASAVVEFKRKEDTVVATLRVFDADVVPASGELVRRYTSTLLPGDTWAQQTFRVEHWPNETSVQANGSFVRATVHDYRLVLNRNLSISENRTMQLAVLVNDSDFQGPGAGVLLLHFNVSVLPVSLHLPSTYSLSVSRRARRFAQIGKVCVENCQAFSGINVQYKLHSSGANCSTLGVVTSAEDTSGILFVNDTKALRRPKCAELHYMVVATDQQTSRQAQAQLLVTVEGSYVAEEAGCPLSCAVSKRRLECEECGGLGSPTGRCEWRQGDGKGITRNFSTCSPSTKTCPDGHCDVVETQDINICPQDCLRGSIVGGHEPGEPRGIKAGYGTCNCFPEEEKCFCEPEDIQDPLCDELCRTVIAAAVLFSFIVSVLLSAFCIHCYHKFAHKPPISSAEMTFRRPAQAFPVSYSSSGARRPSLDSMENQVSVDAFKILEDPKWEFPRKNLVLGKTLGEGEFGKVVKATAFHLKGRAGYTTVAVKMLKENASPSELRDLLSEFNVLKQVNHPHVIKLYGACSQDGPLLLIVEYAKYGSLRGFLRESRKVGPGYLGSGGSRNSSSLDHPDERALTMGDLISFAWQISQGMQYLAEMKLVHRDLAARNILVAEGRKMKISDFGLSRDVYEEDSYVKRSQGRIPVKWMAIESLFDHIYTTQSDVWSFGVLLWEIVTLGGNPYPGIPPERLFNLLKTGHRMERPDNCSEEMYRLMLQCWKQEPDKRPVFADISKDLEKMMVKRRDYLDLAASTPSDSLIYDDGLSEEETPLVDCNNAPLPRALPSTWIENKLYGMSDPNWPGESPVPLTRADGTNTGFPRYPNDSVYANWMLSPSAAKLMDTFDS

Chain of RET V804L (P07949 29-1114 V804L): as the sequence (P07949 29-1114) above, with V776L counted along it

SMILES	IC50 [1] [nM]	IC50 [2] [nM]
Cc1cc(Nc2cc(C)[nH]n2)nc(N2CCC(O)(C(=O)NCc3ccccc3)CC2)n1 [Compound 103]	> 100	> 100
COC1(C(=O)NCc2ccc(-n3nc(C)cc3C)nc2)CN(c2nc(C)cc(Nc3cc(C)[nH]n3)n2)C1 [Compound 163]	10 to 100	10 to 100
Cc1cc(Nc2cc(C)[nH]n2)nc(N2CC[C@H](C(=O)NCc3ccc(-n4cccn4)nc3)[C@H](O)C2)c1 [Compound 135]	10 to 100	10 to 100
COC1(C(=O)N[C@@H](C)c2ccc(-n3cccn3)nc2)CCN(c2cc(C)cc(Nc3cc(C)[nH]n3)n2)CC1 [Compound 181]	< 10	< 10
COC1(C(=O)NCc2ccc(N3CC[C@@H](F)C3)nc2)CN(c2nc(C)cc(Nc3cc(C)[nH]n3)n2)C1 [Compound 155]	10 to 100	> 100
COC1(C(=O)NCc2ccc(N3CC[C@H](F)C3)nc2)CN(c2nc(C)cc(Nc3cc(C)[nH]n3)n2)C1 [Compound 154]	> 100	> 100
Cc1cc(Nc2cc(C)[nH]n2)nc(N2CCC(C(=O)NCc3ccccc3)CC2)n1 [Compound 100]	10 to 100	> 100
COC1(C(=O)NCc2ccc(-n3cc(F)cn3)nc2)CN(c2nc(Nc3cc(C)[nH]n3)cc(C)c2F)C1 [Compound 174]	< 10	< 10
CCOc1ccc(CNC(=O)C2(O)CCN(c3cc(C)cc(Nc4cc(C)[nH]n4)n3)CC2)cc1 [Compound 113]	< 10	10 to 100
COC1(C(=O)NCc2ccc(-n3cccn3)nc2)CN(c2nc(Nc3cc(C)[nH]n3)cc(C)c2F)C1 [Compound 146]	< 10	< 10
COC1(C(=O)N[C@@H](C)c2ccc(-n3cccn3)nc2)CN(c2nc(Nc3cc(C)[nH]n3)cc(C)c2F)C1 [Compound 168]	< 10	< 10
Cc1cc(Nc2cc(C)[nH]n2)nc(N2CCC(C(=O)NCc3ccc(-n4cccn4)nc3)CC2)n1 [Compound 118]	< 10	< 10

Results, then the molecule that gave them:

IC50 [1] [nM]	IC50 [2] [nM]	SMILES
< 10	< 10	CCC1(C(=O)N[C@@H](C)c2ccc(-n3cccn3)nc2)CN(c2nc(C)cc(Nc3cc(C)[nH]n3)n2)C1 [Compound 130]
< 10	< 10	COC1(C(=O)NCc2ccc(-n3cc(F)cn3)nc2)CN(c2cc(C(F)F)cc(Nc3cc(C)[nH]n3)n2)C1 [Compound 208]
< 10	< 10	CCC1(C(=O)NCc2ccc(-n3cccn3)nc2)CCN(c2nc(C)cc(Nc3cc(C)[nH]n3)n2)CC1 [Compound 158]
< 10	< 10	COC1(C(=O)NCc2ccc(-n3cc(F)cn3)nc2)CCN(c2nc(Nc3cc(C)[nH]n3)cc(C)c2C#N)CC1 [Compound 226]
< 10	< 10	Cc1cc(Nc2cc(C)[nH]n2)nc(N2CCC(C)(C(=O)N[C@@H](C)c3ccc(-n4cc(F)cn4)nc3)CC2)n1 [Compound 191]
< 10	< 10	COC1(C(=O)N[C@@H](C)c2ccc(-n3cc(F)cn3)nc2)CN(c2nccc(Nc3cc(C)[nH]n3)n2)C1 [Compound 149]
< 10	< 10	COC1(C(=O)N[C@@H](C)c2ccc(-n3cc(F)cn3)nc2)CCN(c2cc(C)cc(Nc3cc(C)[nH]n3)n2)CC1 [Compound 216]
< 10	10 to 100	Cc1cc(Nc2cc(C)[nH]n2)nc(N2CC(O)(C(=O)NCc3ccc(-n4cccn4)nc3)C2)c1 [Compound 110]
< 10	< 10	Cc1cc(Nc2cc(C)[nH]n2)nc(N2CCC(CO)(C(=O)N[C@@H](C)c3ccc(-n4cc(F)cn4)nc3)CC2)n1 [Compound 219]
